Source: patent US20020182112A1, “In vivo method for measuring binding of chemical actives to skin or specific constituents of skin” (Unilever Home & Personal Care USA, Division of Conopco, Inc., priority 2001, published 2002)

Target: Bovine Serum Albumim (BSA) (Bos taurus, UniProt P02769)
Assay: Pyranine fluorescence in BSA solution: replacement of pyranine from BSA binding sites by added surfactant
Settings: for ratio of the fluorescence intensities from the deprotonated and protonated state (509 nm / 426 nm): pyranine 1.0×10^−8 M in 50 mM Hepes buffer pH 6.7, BSA 2.5 mg/ml, surfactant added at weight fraction 4×10^−5; for ratio of the fluorescence intensities 509 nm / 426 nm: no surfactant
Method: Fluorescence spectra of pyranine in solutions and on skin were obtained using a Perkin Elmer LS50B fluorometer. In the case of spectra taken on skin, the fiber optic probe accessory was used.
All spectra were taken at pyranine concentrations of 1.0×10^−8 M in 50 mM Hepes buffer (aqueous buffer solution with pH 6.7). Bovine Serum Albumim (BSA) concentrations were 2.5 mg/ml. Surfactant was added at weight fractions of 4×10^−5.
In order to test the applicability of pyranine fluorescence to monitor the binding of surfactants to proteins, applicants studied the effect of added surfactant on the fluorescence spectrum of aqueous solutions of pyranine and BSA. […] This effect can be explained by the replacement of pyranine molecules bound to BSA by SDS molecules leading to an increased concentration of pyranine in free solution and therefore a relative increase in intensity of the fluorescence from the deprotonated state. The ratio of the fluorescence intensities from the deprotonated and protonated site is a measure of the ability of a surfactant to replace pyranine from BSA binding sites.

Chain of Bovine Serum Albumim (BSA) (P02769 25-607): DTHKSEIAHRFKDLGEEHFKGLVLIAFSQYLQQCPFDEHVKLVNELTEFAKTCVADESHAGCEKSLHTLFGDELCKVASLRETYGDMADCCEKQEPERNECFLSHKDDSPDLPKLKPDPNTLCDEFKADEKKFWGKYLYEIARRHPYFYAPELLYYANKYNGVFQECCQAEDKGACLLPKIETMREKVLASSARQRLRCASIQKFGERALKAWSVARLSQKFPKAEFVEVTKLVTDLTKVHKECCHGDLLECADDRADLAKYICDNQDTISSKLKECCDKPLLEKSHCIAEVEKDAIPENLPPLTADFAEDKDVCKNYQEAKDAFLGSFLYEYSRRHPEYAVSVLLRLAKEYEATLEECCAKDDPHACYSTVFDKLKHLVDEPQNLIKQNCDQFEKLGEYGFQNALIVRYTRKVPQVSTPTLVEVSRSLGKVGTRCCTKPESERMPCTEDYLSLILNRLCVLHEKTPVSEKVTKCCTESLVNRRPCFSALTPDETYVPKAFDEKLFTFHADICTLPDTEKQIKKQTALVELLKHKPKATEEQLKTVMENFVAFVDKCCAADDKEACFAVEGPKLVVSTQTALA

Compound | ratio of the fluorescence intensities from the deprotonated and protonated state (509 nm / 426 nm) | also measured
CCCCCCCCCCCC(=O)[O-].[Na+] [Sodium Laurate] | 2.13 | –
O=S(=O)(O)c1cc(O)c2ccc3c(S(=O)(=O)O)cc(S(=O)(=O)O)c4ccc1c2c34 [Pyranine, 8-hydroxyl-1 ,3,6-pyrene-trisulfonic acid] | – | ratio of the fluorescence intensities 509 nm / 426 nm (pyranine 1.0×10^−8 M in 50 mM Hepes buffer pH 6.7, no BSA): 8.03; ratio of the fluorescence intensities 509 nm / 426 nm (pyranine 1.0×10^−8 M in 50 mM Hepes buffer pH 6.7 with BSA 2.5 mg/ml): 1.17
CCCCCCCCCCCCOS(=O)(=O)[O-].[Na+] [SDS, sodium dodecyl sulphate] | 2.23 | effect of added surfactant on the fluorescence spectrum of pyranine and BSA (FIG. 2) (50 mM Hepes buffer, 2.5 mg/ml BSA, 4×10^−5 weight fraction SDS): significant increase of the relative intensity of the fluorescence from the deprotonated state
Sodiumlauryl Ether Sulfate | 2.12 | –
Cocamilopropyl Betaine | 1.56 | –
alkylpolyglycoside [APG] | 1.34 | –
